From patent US20250034084A1, “COMPOSITIONS AND METHODS FOR PREVENTING OR TREATING MYCOSIS” (AMTIXBIO CO., LTD., priority 2016, published 2025)
≈ marks a conversion by molar mass, not a printed value.

What was measured:
[1] = system: Cryptococcus neoformans wild-type (H99S); experiment: Drug efficacy in Galleria mellonella insect model infected with C. neoformans
Procedure: The wild-type (H99S) strain of Cryptococcus neoformans, which is pathogenic fungi, was inoculated into a yeast extract, peptone, and dextrose (YPD) liquid medium, cultured for 16 hours, and then washed twice with phosphate buffered saline (PBS), to prepare a final sample of 10^6 cells/ml. […] A 4 p1 suspension of C. neoformans prepared was injected into a proleg of larvae, so that 4,000 pathogen cells were infected per larva, in which an automatic injector (PB600-1) manufactured by Hamilton Company, and 100 pl syringes and needles were used. […] A group into which PBS alone was injected each time after the infection with C. neoformans was tested as a positive control, and a group in which both infection and drug injection were replaced with PBS was tested as a negative control. […] The larvae were determined as dead in a case where the larvae became dark-colored and made no movement. […] For significance with the controls, a significance level was determined using the Long-rank (Mantel-Cox) method.

[2] = system: Candida glabrata BG2 (ATCC); experiment: Antifungal activity assay (MIC), NCCLS method; format: cell-based; details: RPMI 1640 medium
Source text: (§1) In order to measure the minimum inhibitory concentration (MIC), strains Candida albicans SC5314 (ATCC), Candida glabrata BG2 (ATCC), and Cryptococcus neoformans var. grubii […] were used. All the strains used in the test examples of the present invention were purchased from Korean Culture Center of Microorganisms (KCCM) and ATCC, and used. […] As a control group, amphotericin B and fluconazole, which are known to have excellent antifungal inhibitory activity with a problem of human toxicity, were used. Specifically, in order to prepare a medium first, 8.4 g of RPMI-1640 powder (Sigma; […]-1L) was added to 900 ml of distilled water. Next, 34.5 g of MOPS was added thereto, to bring the final concentration to 0.165 M. Then, 100 ml of 20% glucose was added thereto, and then the pH of the resultant was adjusted to 7 using NaOH. Next, after performing filtration with a filter, the filtrate was stored in a refrigeration condition at 4° C. for use in the next experiment. The experimental method and procedure for the MIC assay were as follows: […] (c) in a case of Aspergillus fumigatus, a diluent was prepared at a concentration of 1×10^5 conidia/ml; (d) a 96-well plate was used and 100 μl of the solution was added to each well, so that 2 μl of diluted drug was prepared; (e) 200 μl of the solution was added to a well into which the highest concentration of drug was to be added, and dilution was performed by serial dilution; (f) after performing static culture for 48 hours at 37° C., a degree of growth was measured at OD600 and a comparison was made.

[3] = system: Candida albicans SC5314 (ATCC); experiment: Antifungal activity assay (MIC), NCCLS method; format: cell-based; details: RPMI 1640 medium
Source text: as §1

[4] = system: Cryptococcus neoformans var. grubii H99 (ATCC); experiment: Antifungal activity assay (MIC), NCCLS method; format: cell-based; details: RPMI 1640 medium
Source text: as §1

[5] = system: Aspergillus fumigatus strains (KCCM32791, KCCM60031, KCCM60293, KCCM60036, KCCM60031, and KCCM60027); experiment: MIC test against several Aspergillus fumigatus strains (FIG. 2); format: cell-based
[6] = system: Fusarium graminearum (KCTC16656) and Fusarium (KSU11480); format: cell-based; details: YPD solid medium, FIG. 4
[7] = system: Trichophyton tonsurans, Trichophyton rubrum, Trichophyton mentagrophytes; experiment: Suppressive activity against Trichophytons on YPD solid medium; format: cell-based; details: six Trichophyton strains

Molecule	MIC C. glabrata [2] [µg/mL]	MIC C. albicans [3] [µg/mL]	MIC C. neoformans [4] [µg/mL]	also measured
CCC(N)C(=O)NCc1ccc(OCc2cccc(F)c2)cc1.Cl (racemic) [Compound 18, (R)/(S)-1-((4-((3-(fluorobenzyl)oxy)benzyl)amino)-1-oxobutane-2-aminium chloride]	>128	>128	128	survival rate on day 7 of the infection ([1]; PBS group all died): 50%; survival of larvae on day 3 of the infection ([1]; drug injected 3 h after infection and once every 24 h for two more days, PBS group 60%): all survived
CCC(N)C(=O)NCc1ccc(OCc2ccc(C(F)(F)F)cc2)cc1.Cl (racemic) [Compound 22, (R)/(S)-1-oxo-1-((4-((4-(trifluoromethyl)benzyl)oxy)benzyl)amino)butane-2-aminium chloride]	32	64	16	inhibitory activity (MIC, average values) compared with amphotericin B [5]: higher inhibitory activity than amphotericin B
CCC(NC)C(=O)NCc1ccc(OCc2cccc(Cl)c2)cc1 (racemic) [Compound 28, (R)/(S)-N-(4-((3-chlorobenzyl)oxy)benzyl)-2-(methylamino)butanamide]	64 (≈ 185 µM)	64 (≈ 185 µM)	16 (≈ 46.1 µM)	inhibitory activity (MIC, average values) compared with amphotericin B [5]: higher inhibitory activity than amphotericin B
Cl.O=C(NCc1ccc(OCc2ccc(F)cc2)cc1)C1CCCN1 (racemic) [Compound 39, (R)/(S)-N-(4-((4-fluorobenzyl)oxy)benzyl)pyrrolidine-2-carboxamide hydrochloride]	>128	>128	128	–
Cl.O=C(NCc1ccc(OCc2ccc(C(F)(F)F)cc2)cc1)C1CCCN1 (racemic) [Compound 40, (R)/(S)-N-(4-((4-(trifluoromethyl)benzyl)oxy)benzyl)pyrrolidine-2-carboxamide hydrochloride]	–	64	–	MIC C. glabrata ([2]; hydrochloride): 32 µg/mL; MIC C. neoformans ([4]; hydrochloride): 16 µg/mL
Cl.O=C(NCc1ccc(OCc2ccc(Cl)cc2)cc1)C1CCCN1 (racemic) [Compound 41, (R)/(S)-N-(4-((4-chlorobenzyl)oxy)benzyl)pyrrolidine-2-carboxamide hydrochloride]	–	64	–	MIC C. glabrata ([2]; hydrochloride): 64 µg/mL; MIC C. neoformans ([4]; hydrochloride): 32 µg/mL
CN1CCCC1C(=O)NCc1ccc(OCc2cccc(F)c2)cc1 (racemic) [Compound 42, (R)/(s)-1-methyl-N-(4-((3-fluorobenzyl)oxy)benzyl)pyrrolidine-2-carboxamide]	128 (≈ 374 µM)	128 (≈ 374 µM)	16 (≈ 46.7 µM)	–
CN1CCCC1C(=O)NCc1ccc(OCc2ccc(C(F)(F)F)cc2)cc1 (racemic) [Compound 43, (R)/(S)-1-methyl-N-(4-((4-(trifluoromethyl)benzyl)oxy)benzyl)pyrrolidine-2-carboxamide]	64 (≈ 163 µM)	32 (≈ 81.5 µM)	8 (≈ 20.4 µM)	–
CN1CCCC1C(=O)NCc1ccc(OCc2ccc(Cl)cc2)cc1 (racemic) [Compound 44, (R)/(s)-1-methyl-N-(4-((4-chlorobenzyl)oxy)benzyl)pyrrolidine-2-carboxamide]	64 (≈ 178 µM)	32 (≈ 89.2 µM)	8 (≈ 22.3 µM)	–
Cl.O=C(NCc1ccc(OCc2cccc(F)c2)cc1)C1CCCN1 (racemic) [Compound 49, (R)/(S)-2-((4-((3-fluorobenzyl)oxy)benzyl)carbamoyl)pyrrolidi-1-nium chloride]	>128	>128	32	–
Cl.O=C(NCc1ccc(OCc2ccc(C(F)(F)F)cc2)cc1)C1CCCN1 (racemic) [Compound 50, (R)/(S)-2-((4-((4-(trifluoromethyl)benzyl)oxy)benzyl)carbamoyl)pyrrolidi-1-nium chloride]	128	64	8	–
Cl.O=C(NCc1ccc(OCc2ccc(Cl)cc2)cc1)C1CCCN1 (racemic) [Compound 51, (R)/(S)-2-((4-(4-chlorobenzyl)oxy)benzyl) carbamoyl)pyrrolidi-1-nium chloride]	128	64	8	–
CN1CCC(C(=O)NCc2ccc(OCc3cccc(F)c3)cc2)C1 (racemic) [Compound 52, (R)/(s)-1-methyl-N-(4-((3-fluorobenzyl)oxy)benzyl)pyrrolidine-3-carboxamide]	128 (≈ 374 µM)	128 (≈ 374 µM)	8 (≈ 23.4 µM)	–
CN1CCC(C(=O)NCc2ccc(OCc3ccc(C(F)(F)F)cc3)cc2)C1 (racemic) [Compound 53, (R)/(S)-1-methyl-N-(4-((4-(trifluoromethyl)benzyl)oxy)benzyl)pyrrolidine-3-carboxamide]	64 (≈ 163 µM)	64 (≈ 163 µM)	8 (≈ 20.4 µM)	–
CN1CCC(C(=O)NCc2ccc(OCc3ccc(Cl)cc3)cc2)C1 (racemic) [Compound 54, (R)/(s)-1-methyl-N-(4-((4-chlorobenzyl)oxy)benzyl)pyrrolidine-3-carboxamide]	64 (≈ 178 µM)	64 (≈ 178 µM)	8 (≈ 22.3 µM)	–
C[C@@H]1[C@H](O)[C@@H](C)/C=C/C=C/C=C/C=C/C=C/C=C/C=C/[C@H](O[C@@H]2O[C@H](C)[C@@H](O)[C@H](N)[C@@H]2O)C[C@@H]2O[C@](O)(C[C@@H](O)C[C@@H](O)[C@H](O)CC[C@@H](O)C[C@@H](O)CC(=O)O[C@H]1C)C[C@H](O)[C@H]2C(=O)O [AmpB, amphotericin B, reference compound]	0.5 (≈ 0.541 µM)	0.25 (≈ 0.271 µM)	0.125 (≈ 0.135 µM)	–
(R)/(S)-1-((4-((4-(trifluorobenzyl)oxy)benzyl)amino)-1-oxopentane-2-aminium chloride [Compound 26]	8	16	4	suppressive activity against phytopathogenic fungi [6]: very excellent suppressive activity; suppressive activity against Trichophytons [7]: excellent suppressive activity; inhibitory activity (MIC, average values) compared with amphotericin B [5]: higher inhibitory activity than amphotericin B
